Some test systems named below: Escherichia coli K-12; Spiroplasma citri R8A2; Escherichia coli 23A; Escherichia coli 27A; Staphylococcus aureus 6A; Acinetobacter sp.; Klebsiella aerogenes; Klebsiella sp.; Proteus mirabilis; Providencia stuartii; Candida albicans; Candida tropicalis; Escherichia coli; Fusarium oxysporum; Fusarium solani; Ramulariopsis gossypii; Rhizoctonia solani; Staphylococcus aureus; Streptococcus uberis; Trichoderma asperellum.

Holding throughout (assay): ≥ marks a high value that may be exact or a test limit, other limits are often not marked, values filed in µg/mL are converted to µM
Assay [1] relates to Acinetobacter baumannii ATCC 19606.
The test system of assay [2] is Candida albicans ATCC 90028.
Assay [3] relates to Cryptococcus neoformans var. grubii H99.
The test system of assay [4] is Escherichia coli ATCC 25922.
Assay [5] relates to Klebsiella pneumoniae ATCC 700603.
For assay [6], the system named is Pseudomonas aeruginosa ATCC 27853.
Assay [7] has as its system Staphylococcus aureus ATCC 43300.
In assay [8] the test system is Staphylococcus aureus JE2.
In assay [9] the test system is Acholeplasma laidlawii A-EF22.
Assay [10] relates to Mycoplasma mycoides ssp. mycoides SC KH3J.
The test system of assay [11] is Spiroplasma floricola BNR 1.
The subject of assay [12] is Spiroplasma melliferum BC3.
Assay [13] relates to Candida albicans ATCC 2002.
For assay [14], the system named is Pseudomonas aeruginosa 3A.
For assay [15], the system named is Pseudomonas aeruginosa 7A.
The test system of assay [16] is Staphylococcus aureus 15A.
The subject of assay [17] is Staphylococcus aureus ATCC 2592.
Assay [18] relates to Escherichia coli NCTC 10418.
The subject of assay [19] is Escherichia coli NCTC 8007.
For assay [20], the system named is Staphylococcus aureus NCTC 10571.
The subject of assay [21] is Acinetobacter calcoaceticus.
The test system of assay [22] is Bacillus cereus ATCC 14579.
Assay [23] concerns Bacillus subtilis ATCC 23857.
In assay [24] the test system is Candida albicans ATCC 1023.
Assay [25] relates to Cryptococcus neoformans ATCC 28957.
In assay [26] the test system is Pectobacterium carotovorum.
Assay [27] deals with Pseudomonas syringae pv. tabaci.
For assay [28], the system named is Staphylococcus aureus ATCC 25923.
Assay [29] has as its system Staphylococcus aureus ATCC 29313.
The subject of assay [30] is Streptococcus dysgalactiae.
For assay [31], the system named is Xanthomonas axonopodis pv. glycines ISBF 327.
Assay [32] relates to Xanthomonas campestris pv. citri.

SMILES strings stand for the structures. ≈ marks a conversion by molar mass, not a printed value. Where “and” joins values, the source holds several entries; their conditions need not be identical. Identical values can stand only once.

The term MIC denotes the smallest concentration in the dilution series that meets the test's criterion for growth inhibition. Consider `CC[C@H](C)[C@H](NC(=O)[C@@H](NC(=O)[C@H](CO)NC(=O)[C@H](C)NC(=O)[C@@H](NC(=O)[C@H](CCCCN)NC(=O)[C@H](CCCCN)NC(=O)[C@@H](NC(=O)[C@@H](NC(=O)[C@H](CCC(=O)O)NC(=O)[C@H](Cc1ccccc1)NC(=O)[C@H](CC(C)C)NC(=O)CN)C(C)C)[C@@H](C)CC)C(C)C)C(C)C)C(=O)NCC(=O)NCC(=O)N[C@@H](CC(C)C)C(=O)O` [GLFEVIKKVASVIGGL], for which the MIC in [1] is greater than 19.6 µM; in assay [2], 19.6 µM (≈ 32 µg/mL); in assay [3] it was 9.82 µM (≈ 16 µg/mL); in assay [4] it was greater than 19.6 µM; in the assay on Escherichia coli K-12, 19.6 µM (≈ 32 µg/mL); in [5], greater than 19.6 µM. In addition, the MIC in [6] is greater than 19.6 µM; in assay [7], 19.6 µM (≈ 32 µg/mL); in [8], no less than 39.3 µM.
For the compound `CC(C)C[C@H](NC(=O)[C@H](CCCCN)NC(=O)[C@H](CC(C)C)NC(=O)[C@H](CC(C)C)NC(=O)[C@H](CC(C)C)NC(=O)[C@H](CCCCN)NC(=O)[C@H](CC(C)C)NC(=O)[C@H](CC(C)C)NC(=O)[C@H](CC(C)C)NC(=O)[C@H](CCCCN)NC(=O)[C@H](CC(C)C)NC(=O)[C@H](CC(C)C)NC(=O)[C@@H](N)CCCCN)C(=O)N[C@@H](Cc1c[nH]c2ccccc12)C(=O)N[C@@H](CCCCN)C(=O)O` [KLLKLLLKLLLKLWK], the MIC in assay [9] stood at 1.56 µM (≈ 2.91 µg/mL); in assay [10] it was 6.25 µM (≈ 11.6 µg/mL); against Spiroplasma citri R8A2 it was 6.25 µM (≈ 11.6 µg/mL); in assay [11] it was 6.25 µM (≈ 11.6 µg/mL); in assay [12], 6.25 µM (≈ 11.6 µg/mL).
On to `CC[C@H](C)[C@H](NC(=O)[C@@H](NC(=O)[C@@H]1CCCN1C(=O)[C@H](CCSC)NC(=O)[C@@H](N)Cc1ccccc1)[C@@H](C)CC)C(=O)NCC(=O)N[C@@H](CCCN=C(N)N)C(=O)N[C@@H](CC(C)C)C(=O)N[C@@H](CCSC)C(=O)N[C@@H](CO)C(=O)NCC(=O)N[C@@H](CO)C(=O)N[C@@H](CC(C)C)C(=O)O` [FMPIIGRLMSGSL], for which the MIC in assay [13] amounted to 21.1 µM (≈ 30 µg/mL); against Escherichia coli 23A, 5.28 µM (≈ 7.5 µg/mL); against Escherichia coli 27A, 10.6 µM (≈ 15 µg/mL); in [4] it was 5.28 µM (≈ 7.5 µg/mL); in assay [14], 2.64 µM (≈ 3.75 µg/mL); in assay [15], 2.64 µM (≈ 3.75 µg/mL). In addition, the MIC worked out at 0.703 µM (≈ 1 µg/mL) in [16], 2.64 µM (≈ 3.75 µg/mL) in the assay on Staphylococcus aureus 6A and 1.34 µM (≈ 1.9 µg/mL) in [17].
As to `CSCC[C@H](NC(=O)[C@H](CC(N)=O)NC(=O)[C@H](CCCN=C(N)N)NC(=O)[C@H](CCC(N)=O)NC(=O)[C@H](Cc1c[nH]c2ccccc12)NC(=O)[C@H](CCC(N)=O)NC(=O)[C@@H](N)Cc1ccccc1)C(=O)N[C@@H](CCCN=C(N)N)C(=O)N[C@@H](CCCCN)C(=O)N[C@H](C(=O)N[C@@H](CCCN=C(N)N)C(=O)NCC(=O)N1CCC[C@H]1C(=O)N1CCC[C@H]1C(=O)N[C@H](C(=O)N[C@@H](CO)C(=O)O)C(C)C)C(C)C` [FQWQRNMRKVRGPPVS], the MIC against Acinetobacter sp. was 2 µM (≈ 3.97 µg/mL); in assay [18], no less than 500 µM; in assay [19] it was no less than 500 µM; against Klebsiella aerogenes, no less than 1000 µM; in the assay on Klebsiella sp., no less than 1000 µM; against Proteus mirabilis, no less than 1000 µM. Further, the MIC in the assay on Providencia stuartii is no less than 1000 µM; in assay [20], no less than 500 µM.
Regarding `CC[C@H](C)[C@H](NC(=O)[C@H](C)NC(=O)[C@H](C)NC(=O)[C@H](CCC(=O)O)NC(=O)[C@H](CCCCN)NC(=O)CNC(=O)[C@H](CCCCN)NC(=O)[C@H](CCC(N)=O)NC(=O)[C@H](CCCCN)NC(=O)[C@@H](NC(=O)[C@@H](NC(=O)[C@H](CO)NC(=O)[C@H](Cc1c[nH]c2ccccc12)NC(=O)[C@H](CC(C)C)NC(=O)CN)[C@@H](C)O)[C@@H](C)CC)C(=O)N[C@@H](C)C(=O)N[C@@H](C)C(=O)N[C@@H](C)C(=O)N[C@@H](CCCCN)C(=O)N[C@@H](C)C(=O)N[C@@H](C)C(=O)NCC(=O)N[C@@H](CCC(N)=O)C(=O)N[C@@H](C)C(=O)N[C@@H](C)C(=O)N[C@@H](CC(C)C)C(=O)NCC(=O)N[C@@H](C)C(=O)N[C@@H](CC(C)C)C(N)=O` [GLWSTIKQKGKEAAIAAAKAAGQAALGAL], the MIC was 25.7 µM (≈ 71.7 µg/mL) in assay [21]; 16 µM (≈ 44.7 µg/mL) in assay [22]; 1 µM (≈ 2.79 µg/mL) in [23]; 5.7 µM (≈ 15.9 µg/mL) in assay [24]; 4 µM (≈ 11.2 µg/mL) in assay [2]; 5.7 µM (≈ 15.9 µg/mL) against Candida albicans. In addition, the MIC was found to be 0.37 µM (≈ 1.03 µg/mL) against Candida tropicalis; 8 µM (≈ 22.4 µg/mL) in assay [25]; 6.42 µM (≈ 17.9 µg/mL) against Escherichia coli; 16 µM (≈ 44.7 µg/mL) in the assay on Fusarium oxysporum; 16 µM (≈ 44.7 µg/mL) in the assay on Fusarium solani; 0.5 µM (≈ 1.4 µg/mL) in assay [26]. Further, the MIC in assay [27] was 1 µM (≈ 2.79 µg/mL); with Ramulariopsis gossypii, 8 µM (≈ 22.4 µg/mL); against Rhizoctonia solani it was no less than 64 µM; in assay [28], 3.2 µM and 8 µM; in assay [29] it was 11 µM (≈ 30.7 µg/mL); with Staphylococcus aureus, 12.8 µM and 5.7 µM. The minimal inhibitory concentration (MIC) in assay [30] stood at 5.7 µM (≈ 15.9 µg/mL); in the assay on Streptococcus uberis, 5.7 µM (≈ 15.9 µg/mL); against Trichoderma asperellum it was 8 µM (≈ 22.4 µg/mL); in assay [31], 1 µM (≈ 2.79 µg/mL); in assay [32], 0.5 µM (≈ 1.4 µg/mL).
